Results from US20240041796A1, “ANTI-INFLAMMATORY COMPOSITION COMPRISING N-BENZYL-N-METHYLDECAN-1-AMINE OR A DERIVATIVE THEREOF AS AN ACTIVE INGREDIENT” (PUSAN NATIONAL UNIVERSITY INDUSTRY-UNIVERSITY COOPERATION …, priority 2022, published 2024).

Assays:
[1] = tested on: DBA/J1 male mice; assay: Serum AST and ALT activity (hepatotoxicity indicators) in the collagen-induced rheumatoid arthritis model; format: in vivo, mouse; settings: oral administration for 3 weeks; FIG. 7
Method: In one example, BMDA (FMJ-G0) and a derivative thereof (DMMA, FMJ-G4) at a concentration of 2.5 mg/mL were orally administered to male mice in a volume of 200 μL (20 mg/body weight Kg) for 21 days. In a control group, soybean oil was orally administered thereto.
During the experiment, the insteps of the forelimbs and hindlimbs were measured with a caliper three times a week, and the mice were suffocated, and joint areas were prepared for immunohistochemical staining and immunoblotting. Moreover, the spleen was removed therefrom and a size thereof was measured. Further, blood was drawn through the hepatic portal vein to prepare serum. A specific method was as follows. • 1) Paraffin sections were prepared as the joints including the ankles of the forelimbs. At this time, decalcification is performed first, followed by sectioning the same at a thickness of 4 μm, and H&E staining. • 2) The cell lysis solution was added thereto, and then we crushed the tissue with a sonicator, which was prepared for immunoblotting. • 3) Trisol solution was added to the joint tissue, the tissue was pulverized in a sonicator, and centrifuged, and the Trisol solution was used to precipitate proteins and DNA for entire RNA separation, and the entire RNA was collected from the supernatant obtained via the centrifugation. c-DNA was synthesized using oligo-dT primer and reverse transcriptase, and then, quantitative qRT-PCR and immunoblotting were performed thereon.

[2] = tested on: NF-KB P65 protein; assay: NF-KB P65 distribution in cytoplasm and nucleus of LPS-treated THP-1 cells, immunoblotting; format: cell-based, human; settings: FIG. 2D
Source text: Moreover, the mononuclear THP-1 cell line treated with lipopolysaccharide (LPS) and BMDA/DMMA under the same conditions was partitioned into cytoplasmic and nuclear portions. Distribution of NF-KB P65 protein in the cytoplasm and nucleus was examined based on immunoblotting.

[3] = tested on: human THP-1 monocytic cell line; assay: ELISA of inflammatory cytokines in supernatant of LPS-treated THP-1 cells; format: cell-based; settings: LPS 1 μg/ml, FIG. 2C
Method: Each of BMDA (FMJ-G0) or DMMA (FMJ-G4) was added to a culture medium at concentrations of […], and 1 μM in a 6-well plate. The human THP-1 monocytic cell line (5×10^5 cells/well) was cultured therein for 3 hours. Each well was treated with lipopolysaccharide at a concentration of 1 μg/ml. After 1 hour, centrifugation was performed to obtain a supernatant which was used in an ELISA for inflammatory cytokine evaluation. Cell lysate was added to the collected THP-1 cells for immunoblotting.

[4] = tested on: male SD rats; assay: DNBS-induced colitis model, enema administration; format: in vivo, rat; settings: for inflammatory response caused by DNBS / length of the large intestine (colon) / ulcer scab: 500 μL of 200 μg/mL through the anus for 5 days; for inflammatory response caused by DNBS: FIG. 3A-B; for production amount of CNIC-3 chemokine: ELISA of colon supernatant, FIG. 3E; for body weight lost due to the DNBS treatment: FIG. 3C; for length of the large intestine (colon) / ulcer scab: vs DNBS+PBS group; for macrophage peroxidase (MPO) activity in colon: vs DNBS+PBS-treated rat, FIG. 3D
Method: For experimental colitis, male SD rats (250 to 260 g) were fasted one day before developing colitis. A water bottle was prepared so that only water could be consumed by the rats. Then, after anesthesia of the rats, a rubber cannula is inserted into the anus, and a solution in which 48.0 mg DNBS was dissolved in 0.4 mL of 50% alcohol was injected thereto through the cannula. This process was repeated for 3 days.
From the 4th day since the DNBS was inserted, anesthesia of the rats was carried out, and then BMDA (FMJ-G0) and a derivative thereof (DMMA, FMJ-G4) were diluted with PBS, and then 500 μL of the diluted substance was injected at a concentration of 200 μg/mL thereto through the anus. This process was repeated for 5 days. In a control group, DMSO was diluted in PBS at the same concentration and then was injected in the same way for 5 days. Thereafter, on day 6, the rats were suffocated, and the large intestine was removed therefrom to evaluate a level of colitis according to a known method.
Moreover, a portion of the large intestine was removed, placed in a cell lysis buffer (20 mM Tris-HCl [pH 7.5], 150 mM NaCl, 1 mM EDTA, 1% Triton X-100, 0.5% SDS), and subjected to ultrasonic treatment. Centrifugation was carried out to collect only the supernatant. We quantified the protein, and performed immunoblotting thereon.
Further, a portion of the supernatant obtained after the centrifugation as prepared for immunoblotting was used to measure the amount of the chemokine CINC-3 (Cytokine-induced neutrophil chemoattractant) based on ELISA. Moreover, in order to measure the level of activity of macrophages infiltrated into the distal colon, a titer of MPO (Myeloperoxidase) was measured. The distal colon was pulverized in a supersonic pulverizing device, was centrifuged to obtain the supernatant. Then, hydrogen peroxide was added to the supernatant for decomposition. Change in absorbance was measured at 460 nm for 1 minute.

Row | SMILES | activity of ALT enzyme in serum [1] | activity of AST enzyme in serum [1] | NF-KB expression and migration in the nucleus [2] | activity of the transcription factor NF-KB [2] | production of IL-1β [3] | production of TNF-α [3] | inflammatory response caused by DNBS [4] | production amount of CNIC-3 chemokine [4] | body weight lost due to the DNBS treatment [4] | length of the large intestine (colon) [4] | ulcer scab [4] | macrophage peroxidase (MPO) activity in colon [4]
1 | CCCCCCCCCCN(C)Cc1ccccc1 [BMDA, N-benzyl-N-methyldecan-1-amine] | did not increase | did not increase | inhibited | inhibited | inhibited | inhibited | significantly reduced | low | did not restore | no significant difference | much smaller | much lower
2 | CCCCCCCCCCN(C)Cc1ccc(OC)cc1 [DMMA, Decyl-(4-methoxy-benzyl)-methyl-amine] | did not increase | did not increase | inhibited | inhibited | inhibited | inhibited | significantly reduced | low | did not restore | larger than that of the DNBS+PBS-treated rat group | reduced | much lower
